Measured values taken from US20210008149A1, “WNT5A PEPTIDES IN REDUCTION OF CANCER STEM CELLS” (WNTRESEARCH AB, priority 2017, published 2021).
Like-named read-outs stand apart in the source and are kept apart here.

Legend:
[1] = tested on: human HT29 colon cancer cells; experiment: CellTiter-Blue fluorescence cell viability assay; conditions: for IC50: read-out: IC50 value, cell viability, from dose-response curves
Method: (§9) Colon cancer HT29 cells were treated with either FOLFOX alone (green triangles), 5-FU alone (orange triangles), oxaliplatin alone (black squares), Foxy-5 alone (red squares) or FOLFOX+Foxy-5 (blue circles). The cytotoxic effects of these different treatments were evaluated by CellTiter-Blue™ fluorescence cell viability assay. […] The data are normalized and shown as means±SEM.

HT29 colon cancer cells = experiment: HT29 colon cancer xenograft in nude mice, tumours analysed by IHC and mRNA; format: in vivo; conditions: HT29-derived tumours
Excerpt: (§1) Representative photos from saline- and Foxy-5-treated animals are presented. From each such slide, 4 boxes were put on top of the stained tissue and for each of them the ALDH staining was scored as a percentage of stained cells multiplied by the staining intensity. The following score was used for percentage stained cells; 0 for positive stained cells <5%, 1 for positive cells 5-25%, 2 for positive cells 26-50%, 3 for positive cells 51-75%, 4 for positive cells >75%.
(§2) For staining intensities, the stained areas were scored as; 1 for weak staining, 2 for medium staining and 3 for strong staining. For each box a final score was obtained by multiplying the score for percentage of positively stained cells with the score for staining intensity. Finally, a mean value was obtained from the 4 boxes for each tumour. The same scoring protocol was then used for all IHC analyses presented in the present study.
as §1, with “Representative images” for “Representative photos”, “from vehicle (saline)” for “from saline-”, “slide, 6” for “slide, 4”, “were randomly” for “were”
as §2, with “6” for “4”, “tumour sample.” for “tumour.”
(§3) Tumours from two different human colon cancer cell types HT29 and Caco-2 cells were examined by immunohistochemistry (IHC) and mRNA (see FIG. 1).
(§4) On day 0: Subcutaneous injections of HT29 or Caco-2 colon cancer cells in nude mice were done.
(§5) On day 7 after tumours have been established in the mice, intraperitoneal (I.P) injections of vehicle (saline) alone (gr 1) or Foxy-5 (2 μg/g; gr 2) were done.
(§6) On days 9-23 tumour growth and animal weight was monitored—then +8 I.P. injections every 2nd day of either vehicle alone (gr 1) or Foxy-5 (2 μg/g; gr 2).
(§7) On day 24 the two types of tumours (Caco-2 and HT29 derived) (divided in two parts of which one was fixed and the other frozen at −80° C.) were analyzed by IHC for their protein expression of COX-2, 15PGDH, β-catenin, Ascl2, ALDH and Dckl1 and for their mRNA content of ALDH and Dckl1 (ALDH is a general stem cell marker and Dck1 is a specific marker for colon CSCs).

colon cancer cells [2] = conditions: in vitro; cited from earlier work
[3] = tested on: Caco-2 colon cancer cells; experiment: Caco-2 colon cancer xenograft in nude mice, tumours analysed by IHC and mRNA; format: in vivo; conditions: Caco-2-derived tumours
Excerpt: as §1, §2
as §1, with “Representative images” for “Representative photos”, “from vehicle (saline)” for “from saline-”, “slide, 6” for “slide, 4”, “were randomly” for “were”
as §2, with “6” for “4”, “tumour sample.” for “tumour.”
as §3, §4, §5, §6, §7

[4] = tested on: human HT29 colon cancer cells
Method: as §9

[5] = tested on: colon cancer xenograph tissue; experiment: Colon cancer xenograft tissue (cell line not stated), IHC of COX-2 and 15-PGDH; format: in vivo, nude mice; conditions: Foxy-5 2 μg/g I.P., vs vehicle
Excerpt: The IHC stainings were scored exactly as described in detail for the IHC staining in FIG. 1.
(§8) Representative images from vehicle- and Foxy-5-treated animals are presented. From each such slide 6 boxes were put on top of the stained tissue and for each of them the Cox-2 staining was scored as a percentage of stained cells multiplied by the staining intensity as described in detail for FIG. 2.
as §8, with “15-PGDH” for “Cox-2”
On day 0: Subcutaneous injections of HT29 or Caco-2 colon cancer cells in nude mice were done. […]
as §6, §7

colon cancer cells [6] = experiment: In vitro treatment of colon cancer cells (Mehdawi et al., 2016); format: cell-based; conditions: in vitro conditions, inventors' own observation
[7] = Foxy-5 2 μg/g I.P. every 2nd day, day 7-23, IHC and mRNA, day 24, vs vehicle
[8] = Foxy-5 2 μg/g I.P., vs vehicle-treated mice

Molecule: O=c1[nH]cc(F)c(=O)[nH]1 [5-FU, 5-fluorouracil]
- IC50 [1]: 6.8 µM

Molecule: Nc1nc2c(c(=O)[nH]1)N(C=O)C(CNc1ccc(C(=O)N[C@@H](CCC(=O)O)C(=O)O)cc1)CN2 (stereo partly drawn) [folinic acid]
- cytotoxic effect on cell viability ([1]; monotherapy): no cytotoxic effect

Molecule: O=C1[O][Pt]2([NH][C@@H]3CCCC[C@H]3[NH]2)[O]C1=O [oxaliplatin]
- IC50 [1]: 3.4 µM

Molecule: MDGCEL [Foxy-5]
- active β-catenin nuclei expression (HT29 colon cancer cells; IHC, Foxy-5 2 μg/g I.P.): Decreased
- β-catenin downstream target Ascl2 protein expression (HT29 colon cancer cells; IHC, Foxy-5 2 μg/g I.P.): reductions
- expression of the two stem cell biomarkers (ALDH and Dck1) (HT29 colon cancer cells; [7]): significantly reduce
- tumour volume (HT29 colon cancer cells; [8]): reductions
- effect on the inhibitory effect of FOLFOX on cell viability ([1]; combined with FOLFOX): do not enhance or reduce
- IC50 value, cell viability ([1]; from dose-response curves): no IC50 value could be determined
- expression of the PGE2 and lipoxin degrading enzyme 15-PGDH (colon cancer cells [2]): up-regulate
- expression of the PGE2 producing enzyme COX-2 (colon cancer cells [2]): decrease
- β-catenin signalling (colon cancer cells [2]): reduction
- active β-catenin nuclei expression ([3]; IHC, Foxy-5 2 μg/g I.P.): Decreased
- β-catenin downstream target Ascl2 protein expression ([3]; IHC, Foxy-5 2 μg/g I.P.): reductions
- expression of the two stem cell biomarkers (ALDH and Dck1) [3, 7]: significantly reduce
- tumour volume [3, 8]: reductions
- cytotoxic effect on cell viability [4]: no cytotoxic effect
- PGE2 degrading enzyme 15-PGDH expression [5]: increase
- expression of the PGE2 generating enzyme COX-2 [5]: decrease
- number of CSCs (colon cancer cells [6]): not been able to detect any reduction

B1: WNT5A protein: full length WNT5A protein according to SEQ ID NO: 1, a non-canonical Wnt ligand (protein, listed as Homo sapiens)
chain: MKKSIGILSPGVALGMAGSAMSSKFFLVALAIFFSFAQVVIEANSWWSLGMNNPVQMSEVYIIGAQPLCSQLAGLSQGQKKLCHLYQDHMQYIGEGAKTGIKECQYQFRHRRWNCSTVDNTSVFGRVMQIGSRETAFTYAVSAAGVVNAMSRACREGELSTCGCSRAARPKDLPRDWLWGGCGDNIDYGYRFAKEFVDARERERIHAKGSYESARILMNLHNNEAGRRTVYNLADVACKCHGVSGSCSLKTCWLQLADFRKVGDALKEKYDSAAAMRLNSRGKLVQVNSRFNSPTTQDLVYIDPSPDYCVRNESTGSLGTQGRLCNKTSEGMDGCELMCCGRGYDQFKTVQTERCHCKFHWCCYVKCKKCTEIVDQFVCK
- expression of the PGE2 and lipoxin degrading enzyme 15-PGDH (colon cancer cells [2]): up-regulate
- expression of the PGE2 producing enzyme COX-2 (colon cancer cells [2]): decrease
- β-catenin signalling (colon cancer cells [2]): reduction
- number of CSCs (colon cancer cells [6]): not been able to detect any reduction
